Key:
Format in all cases: cell-based
Details in all cases: isolated compound
H460 cells = experiment: MTT survival assay, human lung cancer cell line H460
Protocol: (§1) The Anctin K(AnK) and dehydroeburicoic acid (DeHBA) separately isolated from the Extraction A of Example 1 were added into the culture media of human lung-cancer cells, A549, CH27 or H460, to test for tumor cell survival by using anti-cancer drug screen model. This survival assay was carried out with the widely known MTT (3-[4,5-dimethylthiazol-2-yl]2,5-diphenyltetrazolium bromide) assay.
(§2) Lung cancer cell lines, A549 cells are adenocarcinomic human alveolar basal epithelial cells. A549 cell line are widely used as an in vitro model for a type II pulmonary epithelial cell model for drug metabolism and as a transfection host, while CH27 is human lung squamous carcinoma cell and H460 is human lung non-small cell carcinoma cell. The human lung-cancer cells, A549, CH27 and H460 were cultivated in media containing fetal calf serum for 10 hours. The proliferated cells were washed once with PBS, then treated with 1× trypsin-EDTA and centrifuged at 2000 rpm for 10 minutes. The supernatant was discarded and the cell pellet was re-suspended in […] of fresh culture medium by gently shaking. The cells were placed in a 96-well plate.
(§3) Subsequently, the plates were read on an ELISA reader to determine the survival rates. The half maximal inhibitory concentration (IC50) values were calculated and results of ex vivo survival assay were thus obtained.
(§4) By using the same manner as the method described above, respectively human lung cancer cell line A549, CH27 and H460 was cultured. After then, the pharmaceutical compositions A-F of the present invention was applied separately, and then MTT assay for each sample was measured to assess the inhibition effectiveness of various cancer cell activity while using pharmaceutical compositions A-F of the present invention.

A549 cells = experiment: MTT survival assay, human lung cancer cell line A549
Protocol: as §1, §2, §3, §4

CH27 cells = experiment: MTT survival assay, human lung cancer cell line CH27
Protocol: as §1, §2, §3, §4

Row | SMILES | half-maximal inhibitory concentration (IC50) (H460 cells) | survival rate of lung cancer cell (H460 cells) | half-maximal inhibitory concentration (IC50) (A549 cells) | survival rate of lung cancer cell (A549 cells) | half-maximal inhibitory concentration (IC50) (CH27 cells) | survival rate of lung cancer cell (CH27 cells)
1 | C=C(CC[C@@H](C(=O)O)[C@H]1CC[C@@]2(C)C3=CC[C@H]4C(C)(C)[C@@H](O)CC[C@]4(C)C3=CC[C@]12C)C(C)C [dehydroeburicoic acid] | relatively low | decreasing the survival rate | relatively low | decreasing the survival rate | relatively low | decreasing the survival rate
2 | C=C(CC[C@@H](C)[C@H]1CC[C@H]2C3=C(C(=O)C[C@]12C)[C@@]1(C)CC[C@@H](O)[C@](C)(O)C1C[C@@H]3O)C(C)C(=O)O (stereo partly drawn) [Anctin K] | relatively low | decreasing the survival rate | relatively low | decreasing the survival rate | relatively low | decreasing the survival rate

Reference: patent publication US20170189418A1, “PHARMACEUTICAL COMPOSITION FOR TREATING LUNG CANCER” (MA SHEN KAI RUEI CO., LTD., priority 2015, published 2017)
